The subject of this test is VDCC. Put plainly: VDCC inhibition: calcium entry (Fluo-4 fluorescence) after depolarization with 60 mM KCl in SH-SY5Y neuroblastoma cells. It is filed as cell-based, human. How it is done: This assay is aimed to determine the VDCC blocker activity of compounds; it is performed using SH-SY5Y neuroblastoma cells. SH-SY5Y cells were plated at 5×10^4 cells per well into Black/Clear Bottom 96-well culture plate, 48 hours before treatment. Cells were loaded with Fluo-4, 5 μM and pluronic acid, 0.1%, for 30 min at 37° C., 5% CO2, following a incubation of 15 min at RT in Krebs-HEPES solution. Immediately cells are exposed to the samples for 10 min at different concentrations, depending on potency. After the treatment, calcium entry is measured as fluorescence in a Fluostar Optima plate reader (BMG) in response to depolarization with 60 mM KCl. The excitation wavelength was 485 nm, and that of emission 520 nm.

Where [1] appears, read: compound at 10^−5, 10 min exposure.
Where [2] appears, read: compound at 10^−6, 10 min exposure.
The mark [3] stands for this setting: compound at 10^−7, 10 min exposure.
Where [4] appears, read: compound at 10^−8, 10 min exposure.

Regarding `COc1cc(O)c(C(=O)NCCCCCNC(=O)c2cc(Br)c(OC)c(Br)c2O)cc1Br` [Compound 6], the “% of calcium entry inhibition” value is, setting by setting: under setting [1], 96.6 ± 4%; under setting [2], 48.7 ± 18%; under setting [3], 27.5 ± 5%; under setting [4], 11.8 ± 16%.

Consider `CCCCCOc1cc(OC)ccc1C(=O)NCCCCCCNC(=O)c1ccc(OC)cc1OCCCCC` [Compound 21], for which the “% of calcium entry inhibition” value under setting [1] worked out at 27 ± 7% and the “% of calcium entry inhibition” value under setting [2] amounted to 0%.

Regarding `COc1ccc(C(=O)NCCCCCNC(=O)c2ccc(OC)c(C)c2OC)c(OC)c1C` [Compound 12], the “% of calcium entry inhibition” value by setting is: under setting [1], 78 ± 2.5%; under setting [2], 0%.

`CCC(C)Oc1cc(OC)ccc1C(=O)NCCCOc1ccc(CCNC(=O)c2ccc(OC)cc2OC(C)CC)cc1` (stereo not shown) [Compound 19]: the “% of calcium entry inhibition” value by setting is: under setting [1], 75 ± 12%; under setting [2], 69 ± 1%; under setting [3], 0%.

Consider `CCCOc1cc(OC)ccc1C(=O)NCCCOc1ccc(CCNC(=O)c2ccc(OC)cc2OCCC)cc1` [Compound 9], for which the “% of calcium entry inhibition” value is 86 ± 0.5% under setting [1], 61 ± 0% under setting [2] and 0% under setting [3].

For the compound `CCOC(=O)COc1cc(OC)ccc1C(=O)NCCCOc1ccc(CCNC(=O)c2ccc(OC)cc2OCC(=O)OCC)cc1` [Compound 8], the “% of calcium entry inhibition” value is, setting by setting: under setting [1], 57 ± 7%; under setting [2], 0%.

Take `COc1cc(OC)c(C(=O)NCCCCCNC(=O)c2ccc(OC)c(C)c2OC)cc1OC` [Compound 13]: the “% of calcium entry inhibition” value under setting [1] was determined as 27 ± 2% and the “% of calcium entry inhibition” value under setting [2] stood at 0%.

In the case of `COCCOc1cc(OC)ccc1C(=O)NCCCOc1ccc(CCNC(=O)c2ccc(OC)cc2OCCOC)cc1` [Compound 10], the “% of calcium entry inhibition” value is 79 ± 0.1% under setting [1], 22 ± 19% under setting [2] and 0% under setting [3].

As to `COc1ccc(C(=O)NCCCOc2ccc(CCNC(=O)c3ccc(OC)cc3OCC(C)=O)cc2)c(OCC(C)=O)c1` [Compound 11], the “% of calcium entry inhibition” value was 36 ± 3% under setting [1] and 0% under setting [2].

`COCOc1cc(OC)ccc1C(=O)NCCCOc1c(Br)cc(CCNC(=O)c2ccc(OC)cc2OCOC)cc1Br` [Compound 4]: the “% of calcium entry inhibition” value under setting [3] came out at 6 ± 0%.

For the compound `CCCCOc1cc(OC)ccc1C(=O)NCCCOc1ccc(CCNC(=O)c2ccc(OC)cc2OCCCC)cc1` [Compound 18], the “% of calcium entry inhibition” value stood at 37 ± 2% under setting [1] and 0% under setting [2].

Regarding `CCC(C)Oc1cc(OC)ccc1C(=O)NCCCCCCNC(=O)c1ccc(OC)cc1OC(C)CC` (stereo not shown) [Compound 20], the “% of calcium entry inhibition” value under setting [1] stood at 91 ± 3%, the “% of calcium entry inhibition” value under setting [2] was 59 ± 19% and the “% of calcium entry inhibition” value under setting [3] is recorded as 0%.

Take `COc1ccc(C(=O)NCCCCCCNC(=O)c2ccc(OC)cc2OC)c(OC)c1` [Compound 14]: the “% of calcium entry inhibition” value stood at 38 ± 6% under setting [1] and 0% under setting [2].

As to `COc1c(Br)cc(C(=O)NCCCCCNC(=O)c2cc(Br)c(OC)c(Br)c2O)c(O)c1Br` [Compound 7], the “% of calcium entry inhibition” value is given as 90.7 ± 3% under setting [1] and 3.1 ± 0% under setting [2].

`COCOc1cc(OC)ccc1C(=O)NCCCCCNC(=O)c1ccc(OC)cc1OCOC` [Compound 1]: the “% of calcium entry inhibition” value under setting [1] amounted to 57.8 ± 16%.

Turning to `CCCCOc1cc(OC)ccc1C(=O)NCCCCCCNC(=O)c1ccc(OC)cc1OCCCC` [Compound 22], the “% of calcium entry inhibition” value is, setting by setting: under setting [1], 24 ± 12%; under setting [2], 0%.

Turning to `COc1ccc(C(=O)NCCCOc2ccc(CCNC(=O)c3ccc(OC)cc3OCC=C(C)C)cc2)c(OCC=C(C)C)c1` [Compound 17], the “% of calcium entry inhibition” value was found to be 45 ± 12% under setting [1], 39 ± 8% under setting [2] and 0% under setting [3].

With `COc1ccc(C(=O)NCCCOc2ccc(CCNC(=O)c3ccc(OC)cc3OCC(C)C)cc2)c(OCC(C)C)c1` [Compound 16], the “% of calcium entry inhibition” value reads like this: under setting [1], 39 ± 4%; under setting [2], 0%.

`COc1ccc(C(=O)NCCCOc2ccc(CCNC(=O)c3ccc(OC)cc3OC)cc2)c(OC)c1` [Compound 15]: the “% of calcium entry inhibition” value is, setting by setting: under setting [1], 91.5 ± 1.5%; under setting [2], 37 ± 5%; under setting [3], 0%.

As for `COCOc1cc(OC)ccc1C(=O)NCCCOc1ccc(CCNC(=O)c2ccc(OC)cc2OCOC)cc1` [Compound 2], the “% of calcium entry inhibition” value runs as follows: under setting [1], 93.3 ± 5%; under setting [2], 34.2 ± 1.5%; under setting [3], 29.7 ± 14%; under setting [4], 31.2 ± 9%.

Take `COc1cc(O)c(C(=O)NCCCCCNC(=O)c2cc(Br)c(OC)cc2O)cc1Br` [Compound 5]: under setting [2], the “% of calcium entry inhibition” value is listed as 0%.

The values are drawn from patent US20090069430A1, “DIBENZENE DERIVATIVES AS CALCIUM CHANNEL BLOCKERS” (NEUROPHARMA, S.A., priority 2005, published 2009).
